Ends that are not written are not given here.
Columns and labels:
[1] = test system: 7 day old and 21 day old rats; test: ethanol withdrawal thermal hyperalgesia testing (paw withdrawal latency); format: in vivo, rat; conditions: 7 day old rats; intrathecally 4 hours after 4 g/kg 15% EtOH
isolated spinal cords = test: slow ventral root potential (sVRP) of isolated spinal cord, naloxone-precipitated morphine withdrawal hyperresponsiveness; format: cell-based, rat
Description: The slow ventral root potential (sVRP) is an electrophysiolgical measurement of nociceptive-related response in the spinal cord lasting approximately 40 seconds (Yanagisawa et al., Eur. J. Pharmacol., 106:231-239 (1984); Akagi H. et al., British J. Pharmacol., 84:663-673 (1985); Otsuka M. et al., J. Physiol., 395:255-270 (1988)). It is evoked by stimulation of a lumbar dorsal root at an intensity sufficient to activate small diameter afferents that transmit nociceptive (painful) stimuli from the periphery to the spinal cord (Lozier A. P. et al., J. Neurophysiol., 74:1001-1009 (1995)). […] Thus, the sVRP is related to pain, and its exaggeration following naloxone is a manifestation of withdrawal which translates to an increase in pain sensation in vivo.
Spinal cords from 4-7 day old rats (Charles River Laboratories) were removed and arranged for electrophysiological recording of the slow ventral root potentials (sVRP) (Woodley S. J., et al., Brain Res., 559:17-21 (1991). Briefly, pups were decapitated under halothane anesthesia and the spinal cord removed to an oxygenated artificial cerebrospinal fluid solution. A suction stimulating electrode was placed on a lumbar dorsal root and a suction recording electrode on the corresponding ipsilateral ventral root. Square wave stimuli 0.2 ms in duration were administered at a constant frequency of 1/50 seconds throughout the experiment. Test agents were applied and the responses were recorded, digitized, and area under the curve measured.
After a baseline reading of the sVRP, morphine (200 nM) was applied to the isolated spinal cords. The sVRP was again recorded to characterize the response to morphine. Naloxone (200 nM) was then applied and the sVRPs recorded.
FIGS. 2A-2D show the results after application of non-specific PKC antagonist, GF109203X (1.2 μM), and of an inhibitor specific to Ca++-dependent PKC isoforms, Go6976 (1 μM).
FIGS. 3A-3B show the results after application of the εPCK antagonist (εV1-2; SEQ ID NO:1, 2 nM), conjugated to a peptide carrier (Tat; SEQ ID NO:3) and the Tat peptide alone (2 nM; SEQ ID NO:3). FIGS. 3C-3D show the results after application of γPKC (γV5-3; SEQ ID NO:2, 4 nM) conjugated to a peptide carrier (Tat; SEQ ID NO:3) and of the Tat peptide alone (4 nm; SEQ ID NO:3).

[2] = test system: N-methyl-D-aspartate (NMDA) receptor currents; test: alcohol withdrawal hyperresponsiveness of NMDA-evoked currents in lumbar spinal cord slice motor neurons; format: cell-based, rat
Description: Spinal cords were taken from young rats, and slices of these cords were made and placed in artificial cerebrospinal fluid for patch clamp electrophysiological analysis, to characterize the ability of γPKC peptides to mediate alcohol withdrawal hyperresponsiveness of N-methyl-D-aspartate (NMDA) receptor currents. FIG. 7A is a schematic diagram of the technique, where a lumbar spinal cord slice 10 is shown. The placement of a recording electrode 12 and a pipette 14 for application of NMDA relative to a motor neuron 16 is illustrated.
Sprague-Dawley rats at postnatal day 7-10 were anesthetized with halothane, decapitated, and the spinal cords were quickly removed. Slices […] thick were sectioned from the lumbar region. Whole cell voltage clamp recordings were made from visually-identified motor neurons using infrared video microscopy, a 60× water immersion lens, and a MultiClamp 700A patch clamp amplifier. Cells were held at a holding potential of −60 mV in artificial cerebrospinal fluid (ACSF) containing bicuculline methiodide ([…]), strychnine ([…]), and tetrodotoxin ([…]). Postsynaptic currents were evoked by direct pressure application of 2 mM N-methyl-D-aspartate (NMDA) from a pipette positioned near the recorded cell at 1-2 min intervals, as illustrated in FIG. 7A. The area of evoked currents during and following 100 mM ethanol (EtOH) application was measured and normalized to the average baseline current area during the 10 minutes preceding EtOH application. Data are expressed as mean +/−SEM: Statistical significance was determined by one-way ANOVA followed by Dunn's or Tukey's multiple comparison test with significance set at p<0.05.

Substance: RLVLAS (also: Tat peptide conjugate; listed as Homo sapiens) [γV5-3]
- thermal hyperalgesia, paw withdrawal latency [1]: completely prevented thermal hyperalgesia
- effect on sVRP of inhibitor alone (isolated spinal cords; absence of morphine): did not significantly altered the sVRP
- block of naloxone-precipitated withdrawal hyperresponsiveness of sVRP (isolated spinal cords; morphine 200 nM then naloxone 200 nM, GF109203X 1.2 μM, Go6976 1 μM, εV1-2 2 nM, γV5-3 4 nM, Tat 2-4 nM): reduced withdrawal hyperresponsiveness, but not to a significantly greater amount than the Tat carrier vehicle alone
- block of ethanol withdrawal hyperresponsiveness of NMDA-evoked currents ([2]; 2 nM peptide, ethanol 100 mM 15 minutes then wash): did not completely block withdrawal hyperresponsiveness
- block of ethanol withdrawal hyperresponsiveness of NMDA-evoked currents ([2]; 5-10 nM peptide, ethanol 100 mM then wash): effectively blocked ethanol withdrawal hyperresponsiveness

Reference: US8507440B2, “Protein kinase C peptides for use in withdrawal” (The Board of Trustees of the Leland Stanford Junior …, priority 2002, dated 2013)
